Experimental findings from US9895549B2, “On-demand drug release using magneto-electric nanoparticles” (priority 2012, dated 2018) are described below.

For this experiment, the system named is SKOV-3 cells. The experiment in a line: Trypan-blue cell viability after field treatment, SKOV-3. Type of experiment: cell-based, human. The note with it: PTX drug +, no field, 24-hour. An excerpt:
After we confirmed that the drug-loaded MENs in the vicinity of the cancer cells indeed acted as a field-controlled valve to let the drug in (due to the effective nano-electroporation effect according to our hypothesis), we studied the viability of the cancer cells for different combinations of the drug and the carrier after the drug penetrated through the cell membrane. (Here, maintaining the remote field at 30 Oe provided the specificity to the cancer cells or, in other words, ensured that the healthy cells were intact.) The confocal images that were obtained after a 24-hour field treatment are in FIG. 13. The three key combinations of the carrier included (i) no particle, (ii) HER-2-GMO-MENs (Note: Here, HER-2 stands for the HER-2 biomarker antibody), and (iii) GMO-MENs, respectively. Accordingly, the three images (from left to right) in FIG. 13A show the morphology of the cancer cells after 24-hour treatment by (i) the free drug (with no particle carrier), (ii) drug-HER-2-GMO-MENs with no field applied, and (iii) drug-GMO-MENs in a 30-Oe d.c. field. The three control images in FIG. 13B show the morphology of the cancer cells after the 24-hour treatment by the same three combinations of the carrier with no drug present. In addition, we conducted the confocal imaging and the trypan-blue cell viability tests on both SKOV-3 and HOMEC cell lines after 24- and 36-hour field treatment. […]

Regarding `CC(=O)O[C@H]1C(=O)[C@@]2(C)[C@H]([C@H](OC(=O)c3ccccc3)[C@]3(O)C[C@H](OC(=O)[C@H](O)[C@@H](NC(=O)c4ccccc4)c4ccccc4)C(C)=C1C3(C)C)[C@]1(OC(C)=O)CO[C@@H]1C[C@@H]2O` [FREE, Paclitaxel], the “Percentage Cells Alive” value was determined as 86 ± 8.8%.
